Measurements reported in patent US7723473B2, “Peptide antagonists of TGF-beta family members and therapeutic uses thereof” (St. Louis University, priority 1997, dated 2010).

Tests used:
TGF-β receptors [1] = assay: Inhibition of specific binding of 125I-TGF-β3 to TGF-β receptors in mink lung epithelial cells; conditions: 0.1 nM 125I-TGF-β3, 2.5 hr at 0° C.; read-out: IC50 for inhibiting 125I-TGF-β3 binding to TGF-β receptors
Procedure: (§1) Specific binding of ^125I-labeled TGF-β1, TGF-β2, and TGF-β3 (^125I-TGF-β1, ^125I-TGF-β2, and ^125I-TGF-β3) to TGF-β receptors in mink lung epithelial cells. ^125I-TGF-β1, ^125I-TGF-β2, and ^125I-TGF-β3 were prepared by iodination of TGF-β1, TGF-β2, and TGF-β3 with Na^125I as described previously (Ref. 7). The specific radioactivities of ^125I-TGF-β1, ^125I-TGF-β2, and ^125I-TGF-β3 were 1-3×10^5 cpm/ng. Mink lung epithelial cells were grown on 24-well clustered dishes to near confluence in Dulbecco's modified Eagle medium (DMEM) containing 10% fetal calf serum. The epithelial cells were incubated with 0.1 nM ^125I-TGF-β1, ^125I-TGF-β2, or ^125I-TGF-β3 both with and without 100-fold excess of unlabeled TGF-β1, TGF-β2, or TGF-β3 in binding buffer (Ref. 7). After 2.5 hr at 0° C., the cells were washed two times with binding buffer, and the cell-associated radioactivity was determined. The specific binding of ^125I-labeled TGF-β isoforms to TGF-β receptors in the cells was calculated by subtracting non-specific binding (in the presence of 100-fold excess of the unlabeled TGF-β isoforms) from total binding. All experiments were carried out in triplicate cell cultures.

TGF-β receptors [2] = assay: Inhibition of specific binding of 125I-TGF-β1 to TGF-β receptors in mink lung epithelial cells; conditions: for inhibition of 125I-TGF-β1 binding to TGF-β receptors (in words): various concentrations, FIG. 1D / control experiments; for TGF-β antagonist activity compared with the cysteine-containing peptides: C44S/C48S versions; for effect on 125I-TGF-β1 binding to TGF-β receptors: even at a concentration of 136 μM; for IC50 lower than that of peptide β1^25 (41-65) prior to conjugation: 125I-TGF-β1 binding; for IC50: 0.1 nM 125I-TGF-β1, 2.5 hr at 0° C., read-out: IC50 for inhibiting 125I-TGF-β1 binding to TGF-β receptors
Procedure: as §1, with “The specific binding of ^125I-labeled TGF-β isoforms to TGF-β receptors in the cells was calculated by subtracting non-specific binding (in the presence of 100-fold excess of the unlabeled TGF-β isoforms) from total binding.” left out

[3] = Stability in solution or gel during storage; type: physicochemical; conditions: compared with cysteine-containing peptides
Text: Preparation of peptides. The amino acid sequences of all peptides were derived from those of TGF-β1, TGF-β2, and TGF-β3. For peptides β1^25 (41-65), β2^25 (41-65), and β3^25 (41-65), other versions in which cysteine-44 and cysteine-48 were replaced by serine residues were also synthesized. […] The C44S/C48S version of peptide β1^25 (41-65) is designated SEQ ID NO:12, the C44S/C48S version of the peptide β2^25 (41-65) is designated SEQ ID NO: 13, and the C44S/C48S version of peptide of β3^25 (41-65) is designated SEQ ID NO:14. […] The peptides were synthesized using tert-butoxycarbonyl chemistry on an Applied Biosystems Model 431A peptide synthesizer and purified using Sephadex G-25 column chromatography and reverse-phase HPLC (C-8 column). The purity of the synthesized peptides were verified by automated Edman degradation on an Applied Biosystems Model 477A gas/liquid phase protein sequenator with an on-line Applied Biosystems Model 120A phenylthiohydantoin amino acid analyzer. The purity of all peptides was estimated to be ≧95%.
Preparation of IntraSite® gel containing TGF-β peptantagonist (peptide TGF-beta antagonist). 1 ml of sterile 6 mM peptide β1^25 (41-65) in phosphate buffered saline or 1 ml of sterile phosphate buffered saline was vigorously mixed with 3 ml of IntraSite® gel using two 10 ml syringes connected with a three-way connector. […] However, 1.5 mM of peptide β1^25 (41-65) was used throughout the experiments described below.

type V TGF-β receptor = type V TGF-β receptor (Homo sapiens, UniProt Q07954); conditions: Ref. 6; read-out: Kd for binding to the type V TGF-β receptor; cited from earlier work
PAI-1 expression = PAI-1 expression in mink lung epithelial cells (Northern blot); type: cell-based; conditions: conjugates alone, data not shown
Procedure: RNA Analysis—Mink lung epithelial cells were grown overnight in 12-well clustered dishes in DMEM containing 10% fetal calf serum. The medium was then changed to DMEM containing 0.1% fetal calf serum and the cells were incubated with 0.25 and 2.5 ρM TGF-β1 in the presence of various concentrations of peptide β1^25 (41-65) for 2.5 hr. Total cellular RNA was extracted using RNAzol B (Tel-Test Inc.) according to the manufacturer's protocol. RNA was electrophoresed in 1.2% agarose-formaldehyde gel and transferred to Duralon-UV membranes using 10×SSC. The membranes were probed at 42° C. with a random-primed, radiolabeled 1-kb fragment from the Hind III and NeoI digests of PAI-1 cDNA and glyceraldehyde-3-phosphate dehydrogenase (“GAPDH”) cDNA. The blots were washed with 0.1×SSC containing 0.1% SDS at room temperature.

[4] = system: mink lung epithelial cells; assay: Mink lung epithelial cell growth measured by DNA synthesis without added TGF-β1 (agonist activity); type: cell-based; conditions: for EC50: no added TGF-β1, read-out: ED50 of growth inhibition as measured by DNA synthesis
Procedure: [Methyl-^3H]thymidine Incorporation—Mink lung epithelial cells grown on 24-well clustered dishes were incubated with various concentrations of TGF-β1 in the presence and absence of peptide β1^25 (41-65) or with various concentrations of peptide β1^25 (41-65)-CA, and peptide β1^25 (41-65)-BSA in DMEM containing 0.1% fetal calf serum. After 16 hr at 37° C., the cells were pulsed with 1 μCi/ml of [methyl-^3H]thymidine for 4 hr. The cells were then washed twice with 1 ml of 10% trichloroacetic acid and once with 0.5 ml of ethanol:ether (2:1, v/v). The cells were then dissolved in 0.4 ml of 0.2 N NaOH and counted with a liquid scintillation counter.

Chain of type V TGF-β receptor (Q07954 20-4544): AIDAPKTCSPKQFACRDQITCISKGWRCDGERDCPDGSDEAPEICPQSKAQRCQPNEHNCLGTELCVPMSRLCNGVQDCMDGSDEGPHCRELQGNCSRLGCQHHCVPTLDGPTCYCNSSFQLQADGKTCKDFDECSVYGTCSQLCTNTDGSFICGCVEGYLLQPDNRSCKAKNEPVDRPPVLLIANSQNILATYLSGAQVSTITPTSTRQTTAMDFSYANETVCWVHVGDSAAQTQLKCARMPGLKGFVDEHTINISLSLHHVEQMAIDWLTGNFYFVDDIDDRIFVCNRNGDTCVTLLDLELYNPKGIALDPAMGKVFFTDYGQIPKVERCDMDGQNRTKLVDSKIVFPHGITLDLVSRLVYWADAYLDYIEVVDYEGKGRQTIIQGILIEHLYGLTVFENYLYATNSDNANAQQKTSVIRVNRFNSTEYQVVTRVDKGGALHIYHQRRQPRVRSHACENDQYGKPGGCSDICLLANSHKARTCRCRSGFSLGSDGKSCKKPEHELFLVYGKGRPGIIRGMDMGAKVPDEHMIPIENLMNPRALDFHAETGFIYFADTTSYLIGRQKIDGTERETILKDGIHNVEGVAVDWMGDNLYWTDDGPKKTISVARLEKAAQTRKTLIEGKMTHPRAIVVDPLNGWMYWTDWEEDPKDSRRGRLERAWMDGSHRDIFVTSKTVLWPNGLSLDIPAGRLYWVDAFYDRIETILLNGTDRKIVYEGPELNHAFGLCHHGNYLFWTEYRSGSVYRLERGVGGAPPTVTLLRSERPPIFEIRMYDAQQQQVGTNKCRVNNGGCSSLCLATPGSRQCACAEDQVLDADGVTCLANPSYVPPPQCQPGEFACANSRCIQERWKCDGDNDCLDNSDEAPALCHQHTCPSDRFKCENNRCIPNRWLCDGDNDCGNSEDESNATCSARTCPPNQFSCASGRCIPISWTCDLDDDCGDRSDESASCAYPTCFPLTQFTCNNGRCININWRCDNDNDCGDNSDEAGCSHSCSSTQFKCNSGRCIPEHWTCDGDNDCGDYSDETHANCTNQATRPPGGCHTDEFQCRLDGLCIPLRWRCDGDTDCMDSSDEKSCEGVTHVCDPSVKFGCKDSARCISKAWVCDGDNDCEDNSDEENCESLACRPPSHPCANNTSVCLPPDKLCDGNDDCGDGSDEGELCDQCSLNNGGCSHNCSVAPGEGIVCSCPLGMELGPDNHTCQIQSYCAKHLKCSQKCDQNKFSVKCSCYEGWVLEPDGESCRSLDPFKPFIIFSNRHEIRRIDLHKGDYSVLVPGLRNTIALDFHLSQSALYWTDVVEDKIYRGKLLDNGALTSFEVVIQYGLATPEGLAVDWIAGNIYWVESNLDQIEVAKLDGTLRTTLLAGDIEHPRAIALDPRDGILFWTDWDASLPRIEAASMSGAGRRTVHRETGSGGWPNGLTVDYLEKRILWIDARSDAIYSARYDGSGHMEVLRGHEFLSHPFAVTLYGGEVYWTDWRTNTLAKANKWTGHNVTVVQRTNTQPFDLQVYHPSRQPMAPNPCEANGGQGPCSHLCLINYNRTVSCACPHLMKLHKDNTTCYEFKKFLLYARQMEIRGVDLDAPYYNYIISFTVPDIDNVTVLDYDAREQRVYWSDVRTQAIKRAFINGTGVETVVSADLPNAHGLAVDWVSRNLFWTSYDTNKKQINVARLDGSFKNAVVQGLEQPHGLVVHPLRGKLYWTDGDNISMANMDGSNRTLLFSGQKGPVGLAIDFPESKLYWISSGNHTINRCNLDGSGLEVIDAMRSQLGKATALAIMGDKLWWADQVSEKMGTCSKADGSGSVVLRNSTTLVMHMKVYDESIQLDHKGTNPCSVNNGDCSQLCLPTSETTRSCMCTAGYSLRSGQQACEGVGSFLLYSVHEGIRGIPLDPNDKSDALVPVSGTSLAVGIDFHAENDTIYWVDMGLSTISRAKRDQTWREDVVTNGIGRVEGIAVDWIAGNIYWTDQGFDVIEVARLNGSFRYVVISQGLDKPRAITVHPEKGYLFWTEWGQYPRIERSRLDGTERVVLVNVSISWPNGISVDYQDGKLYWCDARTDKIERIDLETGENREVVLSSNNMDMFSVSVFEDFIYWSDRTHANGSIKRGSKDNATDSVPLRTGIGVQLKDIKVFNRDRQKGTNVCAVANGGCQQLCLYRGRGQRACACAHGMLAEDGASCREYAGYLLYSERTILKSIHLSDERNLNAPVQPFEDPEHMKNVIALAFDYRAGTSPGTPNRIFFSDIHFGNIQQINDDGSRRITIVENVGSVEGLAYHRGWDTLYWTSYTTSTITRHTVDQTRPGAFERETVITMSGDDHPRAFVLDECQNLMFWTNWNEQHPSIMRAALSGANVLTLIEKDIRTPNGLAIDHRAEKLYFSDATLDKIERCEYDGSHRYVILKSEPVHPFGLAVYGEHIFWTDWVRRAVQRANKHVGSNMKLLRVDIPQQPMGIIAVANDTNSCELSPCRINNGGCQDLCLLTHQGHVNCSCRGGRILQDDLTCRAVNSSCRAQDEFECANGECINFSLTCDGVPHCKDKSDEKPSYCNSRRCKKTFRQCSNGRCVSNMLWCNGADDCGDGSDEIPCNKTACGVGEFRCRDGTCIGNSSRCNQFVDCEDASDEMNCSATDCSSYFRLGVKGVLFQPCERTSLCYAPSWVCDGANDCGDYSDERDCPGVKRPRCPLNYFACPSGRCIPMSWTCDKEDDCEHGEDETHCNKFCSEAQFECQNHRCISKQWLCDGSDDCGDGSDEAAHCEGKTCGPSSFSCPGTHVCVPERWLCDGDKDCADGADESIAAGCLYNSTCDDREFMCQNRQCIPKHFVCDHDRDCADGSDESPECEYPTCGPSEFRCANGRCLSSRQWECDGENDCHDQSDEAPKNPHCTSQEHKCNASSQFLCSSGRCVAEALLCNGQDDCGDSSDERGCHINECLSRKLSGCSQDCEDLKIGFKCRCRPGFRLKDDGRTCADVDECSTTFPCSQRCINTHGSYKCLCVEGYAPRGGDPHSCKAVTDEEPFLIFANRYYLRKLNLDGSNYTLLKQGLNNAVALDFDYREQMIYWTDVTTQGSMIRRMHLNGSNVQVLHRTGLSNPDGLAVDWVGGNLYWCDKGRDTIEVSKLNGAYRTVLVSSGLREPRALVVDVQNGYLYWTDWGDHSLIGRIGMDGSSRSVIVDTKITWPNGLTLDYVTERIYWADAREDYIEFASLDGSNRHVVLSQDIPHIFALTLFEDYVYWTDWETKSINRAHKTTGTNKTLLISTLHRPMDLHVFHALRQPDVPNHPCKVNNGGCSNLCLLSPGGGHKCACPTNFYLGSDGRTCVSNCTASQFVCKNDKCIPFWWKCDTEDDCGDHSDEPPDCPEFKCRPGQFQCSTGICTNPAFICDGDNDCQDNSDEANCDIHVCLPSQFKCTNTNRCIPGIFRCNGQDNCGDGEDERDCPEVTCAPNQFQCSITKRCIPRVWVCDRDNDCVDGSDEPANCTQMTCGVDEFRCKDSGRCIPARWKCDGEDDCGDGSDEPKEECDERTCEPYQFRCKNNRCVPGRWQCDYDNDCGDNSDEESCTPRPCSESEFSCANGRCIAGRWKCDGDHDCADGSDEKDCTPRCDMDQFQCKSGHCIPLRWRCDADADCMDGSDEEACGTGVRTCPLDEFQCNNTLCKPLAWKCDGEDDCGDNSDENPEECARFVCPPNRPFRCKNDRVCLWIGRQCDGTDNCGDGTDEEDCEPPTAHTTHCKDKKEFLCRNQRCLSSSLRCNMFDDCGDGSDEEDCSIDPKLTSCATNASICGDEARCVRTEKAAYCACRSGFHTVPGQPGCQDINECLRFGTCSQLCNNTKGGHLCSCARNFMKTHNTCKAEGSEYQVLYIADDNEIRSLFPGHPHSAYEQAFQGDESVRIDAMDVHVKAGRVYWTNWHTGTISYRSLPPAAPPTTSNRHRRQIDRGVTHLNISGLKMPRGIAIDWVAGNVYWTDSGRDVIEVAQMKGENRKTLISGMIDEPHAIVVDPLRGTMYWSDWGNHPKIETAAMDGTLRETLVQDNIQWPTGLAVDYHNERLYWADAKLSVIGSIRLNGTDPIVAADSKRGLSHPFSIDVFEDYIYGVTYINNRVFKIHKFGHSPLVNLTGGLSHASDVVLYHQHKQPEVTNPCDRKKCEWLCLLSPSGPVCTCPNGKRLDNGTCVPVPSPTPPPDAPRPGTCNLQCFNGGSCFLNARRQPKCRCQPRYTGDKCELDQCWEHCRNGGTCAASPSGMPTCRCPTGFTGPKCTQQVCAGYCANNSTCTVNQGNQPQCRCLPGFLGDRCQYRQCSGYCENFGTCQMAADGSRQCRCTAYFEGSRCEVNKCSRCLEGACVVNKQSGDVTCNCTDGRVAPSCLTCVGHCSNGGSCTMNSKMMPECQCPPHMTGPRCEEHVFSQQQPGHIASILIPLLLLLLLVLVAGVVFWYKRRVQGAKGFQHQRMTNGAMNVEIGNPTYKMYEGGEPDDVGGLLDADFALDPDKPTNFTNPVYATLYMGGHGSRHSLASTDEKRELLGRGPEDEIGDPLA

## ANFCAGACPYLWSSDTQHSRVLSLY [peptide β2^25 (41-65)]
TGF-β receptors [1]
  IC50: ~80 nM

## CA: carrier protein human carbonic anhydrase I conjugated without peptides, control [reference compound]
TGF-β receptors [2]
  inhibition of 125I-TGF-β1 binding to TGF-β receptors (in words): did not have inhibitory activity

## SEQ ID NO:12: β1^25 (41-65) with cysteine-44 and cysteine-48 replaced by serine residues (ANFSLGPSPYIWSLDTQYSKVLALY; listed as Homo sapiens)
[3]
  stability in solution during storage: better stability
TGF-β receptors [2]
  TGF-β antagonist activity compared with the cysteine-containing peptides: same TGF-β antagonist activity

## SEQ ID NO:14: β3^25 (41-65) with cysteine-44 and cysteine-48 replaced by serine residues (ANFSSGPSPYLRSADTTHSTVLGLY; listed as Homo sapiens)
[3]
  stability in solution during storage: better stability
TGF-β receptors [2]
  TGF-β antagonist activity compared with the cysteine-containing peptides: same TGF-β antagonist activity

## SEQ ID NO: 13: β2^25 (41-65) with cysteine-44 and cysteine-48 replaced by serine residues (ANFSAGASPYLWSSDTQHSRVLSLY; Human)
[3]
  stability in solution during storage: better stability
TGF-β receptors [2]
  TGF-β antagonist activity compared with the cysteine-containing peptides: same TGF-β antagonist activity

## TGF-β1: transforming growth factor β1, 25-kDa dimeric protein
Type V TGF-β receptor
  Kd: ~0.4 nM

## TGF-β2: transforming growth factor β2
Type V TGF-β receptor
  Kd: ~0.4 nM

## TGF-β3: transforming growth factor β3
Type V TGF-β receptor
  Kd: ~5 nM

## peptide β1^25 (21-45): pentacosapeptide, residues 21-45 of human TGF-β1 (YIDFRKDLGWKWIHEPKGYHANFCL)
TGF-β receptors [2]
  effect on 125I-TGF-β1 binding to TGF-β receptors: did not show any effect

## peptide β1^25 (31-55): pentacosapeptide, residues 31-55 of human TGF-β1 (KWIHEPKGYHANFCLGPCPYIWSLD)
TGF-β receptors [2]
  effect on 125I-TGF-β1 binding to TGF-β receptors: did not show any effect

## peptide β1^25 (51-75): pentacosapeptide, residues 51-75 of human TGF-β1 (IWSLDTQYSKVLALYNQHNPGASAA)
TGF-β receptors [2]
  effect on 125I-TGF-β1 binding to TGF-β receptors: did not show any effect

## peptide β1^25 (61-85): pentacosapeptide, residues 61-85 of human TGF-β1 (VLALYNQHNPGASAAPCCVPQALEP)
TGF-β receptors [2]
  effect on 125I-TGF-β1 binding to TGF-β receptors: did not show any effect

## peptide β1^25 (71-95): pentacosapeptide, residues 71-95 of human TGF-β1 (GASAAPCCVPQALEPLPIVYYVGRK)
TGF-β receptors [2]
  effect on 125I-TGF-β1 binding to TGF-β receptors: did not show any effect

## peptide β1^25 (81-105): pentacosapeptide, residues 81-105 of human TGF-β1 (QALEPLPIVYYVGRKPKVEQLSNMI)
TGF-β receptors [2]
  effect on 125I-TGF-β1 binding to TGF-β receptors: did not show any effect

## β1^10 (49-58) D55A (PYIWSLATQY)
TGF-β receptors [2]
  inhibition of 125I-TGF-β1 binding to TGF-β receptors (in words): similar

## β1^10 (49-58) S53A (PYIWALDTQY)
TGF-β receptors [2]
  inhibition of 125I-TGF-β1 binding to TGF-β receptors (in words): similar

## β1^10 (49-58) W52A (PYIASLDTQY)
TGF-β receptors [2]
  inhibition of 125I-TGF-β1 binding to TGF-β receptors (in words): similar

## β1^25 (41-65) W52A/D55A (ANFCLGPCPYIASLATQYSKVLALY)
TGF-β receptors [2]
  inhibition of 125I-TGF-β1 binding to TGF-β receptors (in words): did not inhibit

## β1^25 (41-65)-BSA: peptide β1^25 (41-65) cross-linked with DSS to bovine serum albumin, ~5-10 peptides per carrier protein
PAI-1 expression
  effects on the expression of PAI-1: neither showed significant effects
[4]
  EC50: ~100 nM
TGF-β receptors [2]
  IC50 lower than that of peptide β1^25 (41-65) prior to conjugation: ~20 fold

## β1^25 (41-65)-CA: peptide β1^25 (41-65) cross-linked with DSS to human carbonic anhydrase I, ~5-10 peptides per carrier protein
PAI-1 expression
  effects on the expression of PAI-1: neither showed significant effects
[4]; 0.2 μM conjugate
  growth inhibition induced by conjugate: 30-40%
[4]
  EC50: ~100 nM
TGF-β receptors [2]
  IC50: ~50 nM
  IC50 lower than that of peptide β1^25 (41-65) prior to conjugation: ~20 fold

## β2^10 (49-58) D55A (PYLWSSATQH)
TGF-β receptors [2]
  inhibition of 125I-TGF-β1 binding to TGF-β receptors (in words): failed to inhibit

## β2^10 (49-58) S53A (PYLWASDTQH)
TGF-β receptors [2]
  IC50: ~40000 nM

## β2^10 (49-58) W52A (PYLASSDTQH)
TGF-β receptors [2]
  inhibition of 125I-TGF-β1 binding to TGF-β receptors (in words): failed to inhibit

## β3^10 (49-58): decapeptide, residues 49-58 of TGF-β3 (SEQ ID NO:9) (PYLRSADTTH; listed as Homo sapiens)
TGF-β receptors [2]; concentrations up to ~300 μM
  inhibitory activity on 125I-TGF-β1 binding: did not show any inhibitory activity

## β3^25 (41-65) R52A/D55A (ANFCSGPCPYLASAATTHSTVLGLY)
TGF-β receptors [2]
  inhibition of 125I-TGF-β1 binding to TGF-β receptors (in words): did not inhibit
